Test results reported in US20020035061A1, “COMPOSITIONS AND METHODS FOR TREATING INFECTIONS USING CATIONIC PEPTIDES ALONE OR IN COMBINATION WITH ANTIBIOTICS” (priority 1996, published 2002).
Read-outs that look alike come from different tables or passages of the source.

What was measured:
Assay type in all cases: cell-based
[1] = test system: S. marcescens
[2] = test system: A. calcoaceticus
[3] = test system: bacterial isolates; assay: microbe, parasite or virus in culture; conditions: for Peptide MIC Alone: 2. Ceftriaxone; for FIC: peptide + Ceftriaxone
[4] = test system: microorganisms with acquired resistance; assay: microbe, parasite or virus in culture; conditions: for Peptide MIC Alone: Ceftriaxone section; for FIC: peptide + Ceftriaxone
[5] = test system: E. faecalis
[6] = test system: E. cloacae
[7] = test system: P. aeruginosa
[8] = test system: S. epidermidis
[9] = test system: K. pneumoniae
[10] = test system: inherently resistant microorganisms; assay: microbe, parasite or virus in culture; conditions: P. aeruginosa
[11] = test system: S. aureus
[12] = test system: E. coli
[13] = test system: S. maltophilia

## WRWWKPKWRWPKW [MBI 11J02CN]
[1]; S. marcescens SMS003
  MIC: >128 µg/mL
[2]; A. calcoaceticus AC002
  MIC: 4 µg/mL
[3]; A. baumannii ABI005
  Peptide MIC Alone: 8 µg/mL
  Ceftriaxone MIC + Peptide: 8 µg/mL
  Peptide MIC + Ceftriaxone: 0.5 µg/mL
  FIC: 0.56
[3]; B. cepacia BC003
  Peptide MIC Alone: >128 µg/mL
  Ceftriaxone MIC + Peptide: 4 µg/mL
  Peptide MIC + Ceftriaxone: 64 µg/mL
  FIC: 0.50
[3]; E. cloacae ECL014
  Peptide MIC Alone: 32 µg/mL
  Ceftriaxone MIC + Peptide: 16 µg/mL
  Peptide MIC + Ceftriaxone: 8 µg/mL
  FIC: 0.38
[3]; E. cloacae ECL015
  Peptide MIC Alone: 32 µg/mL
  Ceftriaxone MIC + Peptide: 16 µg/mL
  Peptide MIC + Ceftriaxone: 8 µg/mL
  FIC: 0.50
[3]; P. aeruginosa PA008
  Peptide MIC Alone: 64 µg/mL
  Ceftriaxone MIC + Peptide: 0.125 µg/mL
  Peptide MIC + Ceftriaxone: 32 µg/mL
  FIC: 0.50
[3]; P. aeruginosa PA039
  Peptide MIC Alone: 64 µg/mL
  Ceftriaxone MIC + Peptide: 16 µg/mL
  Peptide MIC + Ceftriaxone: 16 µg/mL
  FIC: 0.50
[3]; S. aureus SA025 MRSA
  Peptide MIC Alone: 2 µg/mL
  Ceftriaxone MIC + Peptide: 0.125 µg/mL
  Peptide MIC + Ceftriaxone: 1 µg/mL
  FIC: 0.52
[3]; S. epidermidis SE012
  Peptide MIC Alone: 4 µg/mL
  Ceftriaxone MIC + Peptide: 16 µg/mL
  Peptide MIC + Ceftriaxone: 1 µg/mL
  FIC: 0.50
[3]; S. epidermidis SE073
  Peptide MIC Alone: 4 µg/mL
  Ceftriaxone MIC + Peptide: 16 µg/mL
  Peptide MIC + Ceftriaxone: 1 µg/mL
  FIC: 0.38
[4]; A. baumannii ABI005
  Ceftriaxone MIC + Peptide: 8 µg/mL
  Peptide MIC + Ceftriaxone: 0.5 µg/mL
  Peptide MIC Alone: 8 µg/mL
  FIC: 0.56
[4]; A. lwoffii ALW007
  Ceftriaxone MIC + Peptide: 4 µg/mL
  Peptide MIC + Ceftriaxone: 2 µg/mL
  Peptide MIC Alone: 4 µg/mL
  FIC: 0.75
[4]; B. cepacia BC003
  Ceftriaxone MIC + Peptide: 8 µg/mL
  Peptide MIC + Ceftriaxone: 32 µg/mL
  Peptide MIC Alone: >128 µg/mL
  FIC: 0.63
[4]; E. cloacae ECL014
  Ceftriaxone MIC + Peptide: 0.25 µg/mL
  Peptide MIC + Ceftriaxone: 16 µg/mL
  Peptide MIC Alone: 32 µg/mL
  FIC: 0.50
[4]; E. cloacae ECL015
  Ceftriaxone MIC + Peptide: 1 µg/mL
  Peptide MIC + Ceftriaxone: 16 µg/mL
  Peptide MIC Alone: 32 µg/mL
  FIC: 0.52
[5]; E. faecalis EFS001
  MIC: 4 µg/mL
[5]; E. faecalis EFS008
  MIC: 16 µg/mL
[6]; E. cloacae ECL007
  MIC: 64 µg/mL
[7]; P. aeruginosa PA004
  MIC: 32 µg/mL
[8]; S. epidermidis SE010
  MIC: 2 µg/mL
[9]; K. pneumoniae KP001
  MIC: 4 µg/mL
[10]
  Peptide MIC + Ceftriaxone: 32 µg/mL
[10]; Ceftriaxone section
  Peptide MIC Alone: 64 µg/mL
[11]; S. aureus SA014
  MIC: 2 µg/mL
[11]; S. aureus SA093
  MIC: 1 µg/mL
[12]; E. coli ECO005
  MIC: 4 µg/mL
[13]; S. maltophilia SMA002
  MIC: 8 µg/mL

## ILRWPWWPWRRKMILKKAGS [MBI 11B17CN]
[1]; S. marcescens strain SMS003
  MIC: >128 µg/mL
[2]; A. calcoaceticus strain AC002
  MIC: 2 µg/mL
[5]; E. faecalis strain EFS008
  MIC: 4 µg/mL
[6]; E. cloacae strain ECL007
  MIC: >128 µg/mL
[7]; P. aeruginosa strain PA004
  MIC: >128 µg/mL
[8]; S. epidermidis strain SE010
  MIC: 4 µg/mL
[9]; K. pneumoniae strain KP001
  MIC: 16 µg/mL
[11]; S. aureus strain SA093
  MIC: 2 µg/mL
[12]; E. coli strain ECO005
  MIC: 8 µg/mL
[13]; S. maltophilia strain SMA002
  MIC: 32 µg/mL

## ALRWPWWPWRRK [MBI 11H01CN]
[1]; S. marcescens SMS003
  MIC: >128 µg/mL
[2]; A. calcoaceticus AC002
  MIC: 2 µg/mL
[5]; E. faecalis EFS001
  MIC: 2 µg/mL
[5]; E. faecalis EFS008
  MIC: 8 µg/mL
[6]; E. cloacae ECL007
  MIC: >128 µg/mL
[7]; P. aeruginosa PA004
  MIC: 128 µg/mL
[8]; S. epidermidis SE010
  MIC: 2 µg/mL
[9]; K. pneumoniae KP001
  MIC: 8 µg/mL
[11]; S. aureus SA014
  MIC: 2 µg/mL
[11]; S. aureus SA093
  MIC: 1 µg/mL
[12]; E. coli ECO005
  MIC: 8 µg/mL
[13]; S. maltophilia SMA002
  MIC: 32 µg/mL

## KRRWPWWPWRLI [MBI 11B7CNR]
[1]; S. marcescens strain SMS003
  MIC: >128 µg/mL
[2]; A. calcoaceticus strain AC002
  MIC: 4 µg/mL
[5]; E. faecalis strain EFS001
  MIC: 4 µg/mL
[6]; E. cloacae strain ECL007
  MIC: 64 µg/mL
[7]; P. aeruginosa strain PA004
  MIC: 64 µg/mL
[8]; S. epidermidis strain SE010
  MIC: 4 µg/mL
[9]; K. pneumoniae strain KP001
  MIC: 8 µg/mL
[11]; S. aureus strain SA093
  MIC: 2 µg/mL
[12]; E. coli strain ECO005
  MIC: 8 µg/mL
[13]; S. maltophilia strain SMA002
  MIC: 32 µg/mL

## WPWWPWRRK [MBI 11G27CN]
[1]; S. marcescens SMS003
  MIC: >128 µg/mL
[2]; A. calcoaceticus AC002
  MIC: 2 µg/mL
[5]; E. faecalis EFS001
  MIC: 8 µg/mL
[5]; E. faecalis EFS008
  MIC: 32 µg/mL
[6]; E. cloacae ECL007
  MIC: >128 µg/mL
[7]; P. aeruginosa PA004
  MIC: 128 µg/mL
[8]; S. epidermidis SE010
  MIC: 8 µg/mL
[9]; K. pneumoniae KP001
  MIC: 32 µg/mL
[11]; S. aureus SA014
  MIC: 4 µg/mL
[11]; S. aureus SA093
  MIC: 1 µg/mL
[12]; E. coli ECO005
  MIC: 16 µg/mL
[13]; S. maltophilia SMA002
  MIC: 32 µg/mL

## WWRWPWWPWRRK [MBI 11A10CN]
[1]; S. marcescens strain SMS003
  MIC: >128 µg/mL
[2]; A. calcoaceticus strain AC002
  MIC: 4 µg/mL
[5]; E. faecalis strain EFS001
  MIC: 4 µg/mL
[5]; E. faecalis strain EFS008
  MIC: 16 µg/mL
[6]; E. cloacae strain ECL007
  MIC: 64 µg/mL
[7]; P. aeruginosa strain PA004
  MIC: 64 µg/mL
[8]; S. epidermidis strain SE010
  MIC: 4 µg/mL
[9]; K. pneumoniae strain KP001
  MIC: 16 µg/mL
[11]; S. aureus strain SA014
  MIC: 4 µg/mL
[11]; S. aureus strain SA093
  MIC: 2 µg/mL
[12]; E. coli strain ECO005
  MIC: 16 µg/mL
[13]; S. maltophilia strain SMA002
  MIC: 32 µg/mL

## ILRRWVWWVWRRK [MBI 11F5CN]
[1]; S. marcescens SMS003
  MIC: >128 µg/mL
[2]; A. calcoaceticus AC002
  MIC: 4 µg/mL
[5]; E. faecalis EFS001
  MIC: 2 µg/mL
[5]; E. faecalis EFS008
  MIC: 8 µg/mL
[6]; E. cloacae ECL007
  MIC: 128 µg/mL
[7]; P. aeruginosa PA004
  MIC: 32 µg/mL
[8]; S. epidermidis SE010
  MIC: 4 µg/mL
[9]; K. pneumoniae KP001
  MIC: 8 µg/mL
[11]; S. aureus SA014
  MIC: 4 µg/mL
[11]; S. aureus SA093
  MIC: 2 µg/mL
[12]; E. coli ECO005
  MIC: 8 µg/mL
[13]; S. maltophilia SMA002
  MIC: 16 µg/mL

## ILRAPWWPWRRK [MBI 11H04CN]
[1]; S. marcescens SMS003
  MIC: >128 µg/mL
[2]; A. calcoaceticus AC002
  MIC: 8 µg/mL
[5]; E. faecalis EFS001
  MIC: 2 µg/mL
[5]; E. faecalis EFS008
  MIC: 8 µg/mL
[6]; E. cloacae ECL007
  MIC: >128 µg/mL
[7]; P. aeruginosa PA004
  MIC: >128 µg/mL
[8]; S. epidermidis SE010
  MIC: 16 µg/mL
[9]; K. pneumoniae KP001
  MIC: 64 µg/mL
[11]; S. aureus SA014
  MIC: 4 µg/mL
[11]; S. aureus SA093
  MIC: 2 µg/mL
[12]; E. coli ECO005
  MIC: 32 µg/mL
[13]; S. maltophilia SMA002
  MIC: >128 µg/mL

## ILRWWVWWVWWRRK [MBI 11F6CN]
[1]; S. marcescens SMS003
  MIC: >128 µg/mL
[2]; A. calcoaceticus AC002
  MIC: 16 µg/mL
[5]; E. faecalis EFS001
  MIC: 16 µg/mL
[5]; E. faecalis EFS008
  MIC: 16 µg/mL
[6]; E. cloacae ECL007
  MIC: 64 µg/mL
[7]; P. aeruginosa PA004
  MIC: 128 µg/mL
[8]; S. epidermidis SE010
  MIC: 8 µg/mL
[9]; K. pneumoniae KP001
  MIC: 32 µg/mL
[11]; S. aureus SA014
  MIC: 16 µg/mL
[11]; S. aureus SA093
  MIC: 8 µg/mL
[12]; E. coli ECO005
  MIC: 32 µg/mL
[13]; S. maltophilia SMA002
  MIC: 64 µg/mL

## ILKKNPNNPNRK [MBI 11B4ACN]
[1]; S. marcescens strain SMS003
  MIC: >128 µg/mL
[2]; A. calcoaceticus strain AC002
  MIC: 4 µg/mL
[5]; E. faecalis strain EFS008
  MIC: 64 µg/mL
[6]; E. cloacae strain ECL007
  MIC: >128 µg/mL
[7]; P. aeruginosa strain PA004
  MIC: >128 µg/mL
[8]; S. epidermidis strain SE010
  MIC: 8 µg/mL
[9]; K. pneumoniae strain KP001
  MIC: 32 µg/mL
[11]; S. aureus strain SA008
  MIC: 1 µg/mL
[12]; E. coli strain ECO005
  MIC: 32 µg/mL
[13]; S. maltophilia strain SMA002
  MIC: 64 µg/mL

## CLRWPWWPWRRK [MBI 11D19CN]
[1]; S. marcescens SMS003
  MIC: >128 µg/mL
[2]; A. calcoaceticus AC002
  MIC: 8 µg/mL
[5]; E. faecalis EFS001
  MIC: 4 µg/mL
[5]; E. faecalis EFS008
  MIC: 64 µg/mL
[6]; E. cloacae ECL007
  MIC: >128 µg/mL
[7]; P. aeruginosa PA004
  MIC: 128 µg/mL
[8]; S. epidermidis SE010
  MIC: 8 µg/mL
[9]; K. pneumoniae KP001
  MIC: 32 µg/mL
[11]; S. aureus SA014
  MIC: 4 µg/mL
[11]; S. aureus SA093
  MIC: 2 µg/mL
[12]; E. coli ECO005
  MIC: 32 µg/mL
[13]; S. maltophilia SMA002
  MIC: 64 µg/mL

## KRRWPWWPWKKLI [MBI 11CNR]
[1]; S. marcescens SMS003
  MIC: 128 µg/mL
[2]; A. calcoaceticus AC002
  MIC: 4 µg/mL
[5]; E. faecalis EFS001
  MIC: 4 µg/mL
[6]; E. cloacae ECL007
  MIC: >128 µg/mL
[7]; P. aeruginosa PA004
  MIC: 32 µg/mL
[8]; S. epidermidis SE010
  MIC: 4 µg/mL
[9]; K. pneumoniae KP001
  MIC: 4 µg/mL
[11]; S. aureus SA093
  MIC: 4 µg/mL
[12]; E. coli ECO005
  MIC: 8 µg/mL
[13]; S. maltophilia SMA002
  MIC: 32 µg/mL
